Patent US7915284B2, “2-aryl-6-phenylimidazo[1,2-a]pyridine derivatives, preparation thereof and therapeutic use thereof” (Sanofi-Aventis, priority 2006, dated 2011)

Biological target: T1, mouse Nurr1 receptor (Mus musculus, UniProt Q06219)
T1 construct: endogenously expressing the mouse Nurr1 receptor; host or cells: Neuro-2A (N2A) mouse neuroblastoma cells stably transfected with 8NBRE-luciferase
Test: In vitro activity on N2A cells (NBRE-luciferase reporter)
Type: cell-based
Details: N2A cell line endogenously expressing mouse Nurr1, stably transfected with 8NBRE-luciferase; 24 hours incubation
Protocol: Evaluation of the In Vitro Activity on N2A Cells
Assays consisted in measuring the in vitro activity of the compounds of the invention on a cell line (N2A) endogenously expressing the mouse Nurr1 receptor and stably transfected with the NOT binding response element (NBRE) coupled to the luciferase reporter gene. The EC50 values are between 0.01 and 1000 nM. The assays were carried out according to the procedure described below.
The Neuro-2A cell line comes from a standard commercial source (ATCC). The Neuro-2A clone was obtained from a spontaneous tumour originating from an A albino mouse strain, by R. J Klebe et col. This Neuro-2A line is subsequently stably transfected with 8NBRE-luciferase. The N2A-8NBRE cells are cultured until confluence in 75 cm^2 culture flasks containing DMEM supplemented with 10% of foetal calf serum, 4.5 g/l of glucose and 0.4 mg/ml of geneticin. After a week of culture, the cells are recovered with 0.25% trypsin for 30 seconds and then resuspended in DMEM without phenol red, containing 4.5 g/l of glucose and 10% of Hyclone delipidized serum, and deposited into transparent-bottom 96-well white plates. The cells are deposited at a rate of 60 000 per well in 75 μl for 24 hours before the addition of the products. The products are applied in 25 μl and incubated for a further 24 hours. On the day of the measurement, an equivalent volume (100 μl) of Steadylite are added to each well and then left for a period of 30 minutes in order to obtain complete cell lysis and maximum signal production. The plates are subsequently measured in a luminescence counter for microplates after having been sealed with an adhesive film. The products are prepared in the form of a stock solution at 10^−2M and then diluted in 100% of DMSO. Each product concentration is prediluted in culture medium before incubation with the cells, thus containing 0.625% final concentration of DMSO.

T1 sequence (Q06219 whole entry): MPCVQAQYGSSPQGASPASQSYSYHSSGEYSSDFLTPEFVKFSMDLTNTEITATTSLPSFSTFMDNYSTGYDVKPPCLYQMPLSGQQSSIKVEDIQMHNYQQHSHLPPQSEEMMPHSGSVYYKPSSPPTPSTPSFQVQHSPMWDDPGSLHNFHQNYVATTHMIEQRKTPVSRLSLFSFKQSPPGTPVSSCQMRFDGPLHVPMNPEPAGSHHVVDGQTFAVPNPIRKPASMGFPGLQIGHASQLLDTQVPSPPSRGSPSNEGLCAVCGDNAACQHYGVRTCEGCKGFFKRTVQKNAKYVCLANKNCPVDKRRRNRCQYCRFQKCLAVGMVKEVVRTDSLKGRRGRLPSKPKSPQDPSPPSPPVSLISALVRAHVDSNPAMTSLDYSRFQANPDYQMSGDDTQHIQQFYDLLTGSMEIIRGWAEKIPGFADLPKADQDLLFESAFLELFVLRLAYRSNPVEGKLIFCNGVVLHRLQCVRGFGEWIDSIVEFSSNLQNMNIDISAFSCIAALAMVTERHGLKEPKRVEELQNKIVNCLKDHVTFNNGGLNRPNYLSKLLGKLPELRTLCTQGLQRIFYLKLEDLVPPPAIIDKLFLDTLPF

Row | EC50 [nM] | Structure (SMILES)
1 | 3.6 | COCCOCc1cccc(-c2ccc3nc(-c4ccc5ccccc5c4)cn3c2)c1 [Compound 17, 6-[3-(2-Methoxyethoxymethyl)phenyl]-2-(naphthalen-2-yl)imidazo[1,2-a]pyridine]
2 | 14 | Cc1ccc(-c2cn3cc(-c4cccc(COc5ccc(Cl)cc5)c4)ccc3n2)cc1 [Compound 31, 6-[3-(4-Chlorophenoxymethyl)phenyl]-2-p-tolylimidazo[1,2-a]pyridine]
3 | 0.7 | CC(C)(O)c1cccc(-c2ccc3nc(-c4ccc(Cl)cc4)cn3c2)c1 [Compound 39, 2-{3-[2-(4-Chlorophenyl)imidazo[1,2-a]pyridin-6-yl]phenyl}propan-2-ol]
4 | 0.7 | OCc1ccccc1-c1ccc2nc(-c3ccc(Cl)cc3)cn2c1 [Compound 40, {2-[2-(4-Chlorophenyl)imidazo[1,2-a]pyridin-6-yl]phenyl}methanol]
